Read-outs that look alike come from different tables or passages of the source.
Key:
DU145 prostate carcinoma = conditions: for Stable Disease / Complete Response / Partial Response / Survivors / Toxic Deaths: number of 5 mice
From the text: Dosing was initiated on Day 1. […] Treatment groups are detailed in Table 5.

SKMES lung carcinoma = test: In vivo evaluation of oral administration against SKMES human lung carcinoma xenograft (Example 21); conditions: single oral bolus Day 1
Description: Female Nu/Nu mice (6-8 weeks of age; implanted with 1 mm^3 SKMES lung carcinoma fragments in the flank) were sorted into treatment groups of six mice each. […] Treatments were administered as a single oral bolus on Day 1, and the study was terminated on Day 60.
(§1) A complete response is obtained if the tumor is not palpable at the end of the study.
The total response rate is defined as the percentage of evaluable animals (excluding deaths due to procedure or toxicity) in a group that experience complete or partial responses at the termination of the study.

SK-MES carcinoma = test: In vivo evaluation against SK-MES human lung carcinoma xenograft (i.v., Example 11); conditions: SK-MES
Description: Antitumor compounds were formulated for an i.v. dosing regime prepared in the following vehicle: 10% ethanol, 10% Cremophor and 80% isotonic saline.
Vehicle control animals were dosed twice intravenously with half the total volume being given separated by one hour. The study was terminated on Day 60.
as §1
A tumor scoring system was designed to provide a more quantitative ranking of efficacy (therapeutic potential) among the antitumor agents evaluated against the different human solid tumor xenografts. Each mouse in a study was given a score of from 1 to 10 at the end of the study. The scores can be summarized as follows:
The individual score for each mouse was averaged into a mean score for each treatment group. […]

VM46 colon carcinoma = conditions: for Mean Score: tumor scoring system
Description: Dosing was initiated on Day 1. […] Taxotere was given i.v. at a dose of 70 mg/kg on a qd x 1 schedule.

HCT116 = test: In Vitro cytotoxicity measured by the cell colony formation assay; assay type: cell-based, human; conditions: Homo sapiens, HCT-116; read-out: IN VITRO ID 50 HCT116
How it was run: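 Four hundred cells per dish in McCoy's 5a medium with 10% FBS were allowed to attach for 5 h at 37 °C. They were then exposed to compound for 72 h at 37 °C, added as a 10× stock made fresh in medium. After HBSS rinsing and refeeding, colonies were counted after 7 days.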

[1] = i.v. qd x 1 at estimated MTD (Taxol 24 mg/kg split), Day 91
[2] = number of mice, mg/kg: Taxol 40, 0687 228, 0503 73, 6 mice/group, Day 60
[3] = number of mice, Taxol 15 mg/kg i.p. qd x 5, 6 mice, Day 64
[4] = number of mice, i.v. qd x 1, mg/kg: Taxol 24, 0499 77, 0503 72.6, 0670 123.1, 0706 107.6, 0838 72.6, 0854 46.6, 0983 67.4, Taxotere 70, 6 mice/group, Day 64

## CC(=O)O[C@H]1C(=O)[C@@]2(C)[C@H]([C@H](OC(=O)c3ccccc3)[C@]3(O)C[C@H](OC(=O)[C@H](O)[C@@H](NC(=O)c4ccccc4)c4ccccc4)C(C)=C1C3(C)C)[C@]1(OC(C)=O)CO[C@@H]1C[C@@H]2O [Taxol, paclitaxel, reference compound]
DU145 prostate carcinoma; DU145, i.v. qd x 1, five mice per group
  toxic deaths / toxic lethalities: One
DU145 prostate carcinoma; Taxol 18 mg/kg i.p. qd x 5, 5 mice
  Mean Score: 0 ± 0
DU145 prostate carcinoma; i.v. qd x 1 at estimated MTD (Taxol 24 mg/kg split), 5 mice/group, Day 91
  Mean Score: 2 ± 1
DU145 prostate carcinoma; mean days of survival until tumor reached 1.5 g, i.v. qd x 1 at estimated MTD (Taxol 24 mg/kg as two split doses), 5 mice/group, study ended Day 91
  MDS (n): 37.4 ± 8.9 (3) days
DU145 prostate carcinoma; tumor did not reach 1.5 g by end of study, i.v. qd x 1 at estimated MTD (Taxol 24 mg/kg split), Day 91
  Stable Disease: 1
DU145 prostate carcinoma; Taxol 18 mg/kg i.p. qd x 5
  Complete Response: 0
  Partial Response: 0
  Stable Disease: 0
  Survivors: 0
  Toxic Deaths: 5
DU145 prostate carcinoma; i.v. qd x 1 at estimated MTD (Taxol 24 mg/kg as two split doses), Day 91
  Toxic Deaths: 1
DU145 prostate carcinoma; [1]
  Complete Response: 0
  Partial Response: 0
  Survivors: 1
SKMES lung carcinoma; SKMES, 0687 228 mg/kg, 0503 73 mg/kg, Taxol 40 mg/kg
  antitumor activity: no statistically significant response
SKMES lung carcinoma; complete or partial responses among evaluable animals, mg/kg: Taxol 40, 0687 228, 0503 73
  % Total Response: 0%
SKMES lung carcinoma; mean days of survival until neoplasm reached 2.0 g, mg/kg: Taxol 40, 0687 228, 0503 73, 6 mice/group, terminated Day 60
  MDS (n): 13.2 ± 1.4 (6) days
SKMES lung carcinoma; number of mice, mg/kg: Taxol 40, 0687 228, 0503 73, 6 mice/group
  Toxic Deaths: 0
SKMES lung carcinoma; [2]
  Complete Response: 0
  Partial Response: 0
  Stable Disease: 0
  Survivors: 0
SK-MES carcinoma; Taxol 36 mg/kg i.v.
  survival extension compared to vehicle controls: 30%
SK-MES carcinoma; i.v. MTD in two half doses one hour apart, qd x 1, Taxol 36 mg/kg, 0503 72.1 mg/kg, days until tumor 1.5 g, ended Day 60
  MDS (n): 16 ± 2.0 (6) days
SK-MES carcinoma; i.v. split dose qd x 1, six mice per group
  Toxic Deaths: 0
SK-MES carcinoma; i.v. split dose qd x 1, six mice per group, Day 60
  Survivors: 0
SK-MES carcinoma; i.v. split dose qd x 1, tumor below 1.5 g at termination
  Stable Disease: 0
SK-MES carcinoma; i.v. split dose qd x 1, tumor not palpable at end of study
  Complete Response: 0
SK-MES carcinoma; i.v. split dose qd x 1, tumor smaller than on Day 1
  Partial Response: 0
SK-MES carcinoma; tumor score 1 to 10 per mouse, group mean
  Mean Score: 1.3 ± 0.3
VM46 colon carcinoma; VM46, Taxol i.p. 15 mg/kg qd x 5
  toxicity: excessively toxic
VM46 colon carcinoma; VM46, Taxol i.p. 15 mg/kg qd x 5, six treated animals
  mortalities: three
VM46 colon carcinoma; VM46, i.v. qd x 1 (compounds estimated MTD; Taxol 24 mg/kg split), six mice per group, ended Day 64
  partial responses: one
VM46 colon carcinoma; VM46, i.v. qd x 1, six mice per group
  Stable Disease: one
VM46 colon carcinoma; mean days of survival until neoplasm reached 1.5 g, Taxol 15 mg/kg i.p. qd x 5, 6 mice, terminated Day 64
  MDS (n): 36.1 ± 12.2 (2) days
VM46 colon carcinoma; number of mice, Taxol 15 mg/kg i.p. qd x 5, 6 mice
  Toxic Deaths: 3
VM46 colon carcinoma; [3]
  Complete Response: 0
  Partial Response: 1
  Stable Disease: 0
  Survivors: 1
VM46 colon carcinoma; number of mice, i.v. qd x 1, mg/kg: Taxol 24, 0499 77, 0503 72.6, 0670 123.1, 0706 107.6, 0838 72.6, 0854 46.6, 0983 67.4, Taxotere 70, 6 mice/group
  Toxic Deaths: 0
VM46 colon carcinoma; [4]
  Complete Response: 0
  Partial Response: 1
  Stable Disease: 1
  Survivors: 2
VM46 colon carcinoma; Taxol 15 mg/kg i.p. qd x 5, 6 mice
  Mean Score: 1.8 ± 1.3
VM46 colon carcinoma; i.v. qd x 1, mg/kg: Taxol 24, 0499 77, 0503 72.6, 0670 123.1, 0706 107.6, 0838 72.6, 0854 46.6, 0983 67.4, Taxotere 70, 6 mice/group
  Mean Score: 3.8 ± 1.4
HCT116
  IC50: 2.1 nM
